The values below come from paper PMC6476926, “Dichloro-Phenyl-Benzotriazoles: A New Selective Class of Human Respiratory Syncytial Virus Entry Inhibitors” (Frontiers in Chemistry, 2019).

Entries after “also recorded” stand apart in the source; their conditions may differ.

One series relates to RSV virions. Put plainly: Virucidal activity assay. It counts as cell-based, Human Respiratory Syncytial Virus (RSV). The settings on record: 20 μM, 4°C or 37°C, 1 h. The method, then:
The mixture without test sample was used as the control. At the end of incubation period, samples were serially diluted in media and titers were determined on Vero-76 cells at high dilutions, at which the compound was not active. Virus titers were determined by plaque assay in Vero-76 cells.

Series [1] in a line: Cytotoxicity, MTT method, MT-4 cells. The note with it: human. On the technique in general: Formazan colour is commonly taken as a measure of viable cells.
The next series has as its system BVDV. In words: microbe, parasite or virus in culture. It counts as cell-based. The settings on record: Bovine viral diarrhea virus isolates and strains, MDBK, read-out: EC50 BVDV.
A further series concerns CV-B5. Put plainly: microbe, parasite or virus in culture. It counts as cell-based, Human Enterovirus B [coxsackie type B5 (CV-B5)]. The note with it: Enterovirus B, CVB5, Vero 76, read-out: EC50 CV-B5.
For series [2], the system named is RSV. In words: Time of addition assay. Format: cell-based, Human Respiratory Syncytial Virus (RSV). The note with it: 20 μM. The method, then: After each incubation period, the monolayers were washed two times with maintenance medium and incubated with fresh medium until 10 h post-infection. Then, after 36 h the development of cytopathic effect (CPE) was evaluated microscopically and each sample was collected, centrifuged and frozen at −80°C. The viral titer was determined by plaque assay (or ELISA).

Series [3] is described as follows: in vitro. The settings on record: cattle (Bos taurus).
A further series has as its system Reo-1. Put plainly: microbe, parasite or virus in culture. The settings on record: Reovirus sp., BHK, read-out: EC50 Reo-1. Format: cell-based, Reovirus type-1 (Reo-1).
Another series has as its system RSV strain B1 cp-52. Put plainly: microbe, parasite or virus in culture. Format: cell-based. The settings on record: human respiratory syncytial virus, Vero 76, read-out: 50% inhibitory concentration RSV cp-52.
In series [4] the test system is RSV A2. In words: Syncytium reduction assay. The settings on record: Vero-76, added 8 h p.i. at 50, 10, 2 μM, assessed 72 h p.i.
Series [5] has as its system RSV. In words: Cell pretreatment assay. It counts as cell-based, Human Respiratory Syncytial Virus (RSV). The settings on record: Vero-76 pretreated with 20 μM, 2 h at 4°C; titer 3 days post infection. The procedure:
After removal of the compound and two gentle washes, cells were infected with RSV. After virus adsorption to cells, the inoculum was removed and the cells were then overlaid with medium, incubated for 3 days at 37°C, and then virus titers were determined by plaque assay.

A short description of series [6]: Cytotoxicity, MTT method, Vero-76 cells. The settings on record: African green monkey (Cercopithecus aethiops).
Series [7] in a line: Cytotoxicity, MTT method, BHK cells. The settings on record: Syrian hamster (Mesocricetus auratus).
In another series the test system is HIV-1IIIB. In words: microbe, parasite or virus in culture. Format: cell-based, Human Immunodeficiency Virus type-1 (HIV-1). The settings on record: Human immunodeficiency virus 1, MT4, read-out: EC50 HIV-1IIIB.
In series [8] the test system is RSV. In words: microbe, parasite or virus in culture. Format: cell-based, Human Respiratory Syncytial Virus (RSV) strain A2. The note with it: human respiratory syncytial virus, Vero 76, read-out: EC50 RSV.
Series [9] concerns RSV A2. Put plainly: Immunofluorescence attachment assay. Format: cell-based, Human Respiratory Syncytial Virus (RSV). The settings on record: 4°C, Vero-76; 20 μM 10d, 6 μg/mL dextran sulfate, 5 μM 6-azauridine. The method, then:
Compounds' inhibitory effects on virus-cell binding event was measured by immunofluorescence performed according to the method described previously with some modifications (Maric et al., [2011]). […] After this incubation period, the monolayers were washed three times in cold PBS in order to remove unbound viral particles and then were fixed in paraformaldehyde 4%. The presence of bound virus was detected by indirect immunofluorescence. […] Abcam, Cambridge, United Kingdom). Cells were then washed three times in PBS-Tween-100 and incubated with a 1:500 dilution of an Alexa Fluor 488-labeled anti-mouse secondary antibody (Molecular Probes, Eugene, Oreg.). After a series of washes in PBS-Tween-100, cells were mounted with Vectashield (Vector Laboratories, Burlingame, CA) containing 4′,6-diamidino-2-phenylindole (DAPI) and images of each well were captured with the ZOE Fluorescent Cell Imager (Biorad).

The test system of another series is Sb-1, VSV, VV, HSV-1. Put plainly: organism not typed. The note with it: Vero 76, read-out: EC50 Sb-1, VSV, VV, HSV-1. Format: cell-based.
The next series concerns YFV. Put plainly: microbe, parasite or virus in culture. Format: cell-based. The note with it: Yellow fever virus, BHK, read-out: EC50 YFV.
Series [10] deals with RSV. Put plainly: Antigen reduction assay (ELISA) in RSV-infected Vero-76 cells.
A short description of series [11]: Cytotoxicity in continuous cell lines (summary statement). The settings on record: continuous cell lines from different organs and species (Table 1, Table S2); read-out: CC50 in most continuous cell lines. Format: cell-based. The procedure:
Exponentially growing MT-4 cells were seeded at an initial density of 4x10^5 cells/mL in 96-well plates containing RPMI-1640 medium, supplemented with 10% fetal bovine serum (FBS), 100 units/mL penicillin G and 100 μg/mL streptomycin. MDBK, Hep-2 and BHK cells were seeded at an initial density of 6 × 10^5, 5 × 10^5, and 1 × 10^6 cells/mL, respectively, in 96-well plates containing Minimum Essential Medium with Earle's salts (MEM-E), L-glutamine, 1 mM sodium pyruvate and 25 mg/L kanamycin, supplemented with 10% horse serum (MDBK) or 10% fetal bovine serum (FBS) (BHK; Hep-2). Vero-76 cells were seeded at an initial density of 5 × 10^5 cells/mL in 96-well plates containing in Dulbecco's Modified Eagle Medium (D-MEM) with L-glutamine and 25 mg/L kanamycin, supplemented with 10% FBS. Cell cultures were then incubated at 37°C in a humidified, 5% CO2 atmosphere, in the absence or presence of serial dilutions of test compounds. The test medium used for cytotoxic and antiviral assay contained 1% of the appropriate serum. Cell viability was determined after 72, 96, or 120 h at 37°C by the MTT method for MT-4, MDBK, Hep-2, BHK and Vero-76 cells (Budge et al., [2004]).

Another series has as its system RSV F-protein. The note with it: read-out: experimental IC50; ref Battles et al., [2016]; cited from earlier work.
A short description of series [12]: in vitro. The note with it: African green monkey (Cercopithecus aethiops).

Consider `O=C(Nc1ccc(-n2nc3cc(Cl)c(Cl)cc3n2)cc1)NC1CCCCC1` [10d, 1-[4-(5,6-dichloro-2H-benzo[d][1,2,3]triazol-2-yl)phenyl]-3-cyclohexylurea], for which the melting point is greater than 300 °C. The virucidal effect entry in the series on RSV virions was “negligible”. In series [1], the CC50 was greater than 100 µM. The EC50 with BVDV was greater than 100 µM. Also, in the series with CV-B5, the EC50 was greater than 90 µM. Also, the “inhibition of RSV, addition at later times” value with RSV [2] (m.o.i. 1, 4–10 h after infection) is “failed to exhibit significant antiviral activity”. Moreover, in the series on RSV [2] (m.o.i. 1, during the 2 h of infection (t = 0) and immediately after), the “inhibition of RSV, addition in early phases” value is given as “most efficient inhibition was observed in early phases of infection”. Further, in the series “in vitro [3]”, the CC50 is greater than 100 µM. The concentration giving a half-maximal response (EC50) in the series with Reo-1 was greater than 71 µM. For the same compound, the IC50 in the series with RSV strain B1 cp-52 was found to be 7 ± 1 µM. In the series on RSV A2 [4], the syncytium formation result was “the number and the size of syncytia decreased in a dose-dependent manner; also recorded: both size and number of syncytia did not increase; also recorded: effective in reducing both syncytia area and number at a concentration of 50 μM; also recorded: dose-dependent reduction of syncytia area and number”. Also, the “inhibition of RSV infection after cell pretreatment” value in the series on RSV [5] was “failed to inhibit RSV infection; also recorded: failed to prevent viral infection”. Also, in [6], the CC50 at 5 days is 90 µM. For the same compound, the CC50 in [7] came out at 71 µM. Besides, the concentration for a half-maximal effect (EC50) in the series with HIV-1IIIB was greater than 100 µM. Further, the EC50 in the series on RSV [8] came out at 2 µM. In addition, the “inhibition of viral attachment” value in the series with RSV A2 [9] is on record as “does not inhibit viral attachment; also recorded: not able to block viral binding to cells”. Further, the EC50 in the series on Sb-1, VSV, VV, HSV-1 is greater than 90 µM. Moreover, the EC50 with YFV is greater than 71 µM. In addition, in the series on RSV [10] (ELISA, at 20 μM), the “reduction of viral antigen” value is reported as 80%. Besides, the EC50 with RSV [10] (human respiratory syncytial virus, Vero 76, read-out: EC50 viral antigen reduction) was 5 µM. The CC50 in [11] was less than 70 µM.
Regarding `CCCNC(=O)Nc1ccc(-n2nc3cc(Cl)c(Cl)cc3n2)cc1` [10b, 1-[4-(5,6-dichloro-2H-benzo[d][1,2,3]triazol-2-yl)phenyl]-3-propylurea], the melting point is greater than 300 °C. This compound displayed a CC50 in series [1] greater than 100 µM. In addition, in the series with BVDV, the EC50 is greater than 78 µM. For the same compound, in the series on CV-B5, the EC50 is greater than 30 µM. Besides, the CC50 in “in vitro [3]” was determined as 78 µM. For the same compound, the EC50 in the series with Reo-1 is greater than 40 µM. The IC50 in the series with RSV strain B1 cp-52 came to 7 ± 1 µM. For the same compound, the CC50 at 5 days in series [6] stood at 30 µM. In addition, the CC50 in series [7] is 40 µM. For the same compound, the EC50 in the series on HIV-1IIIB is greater than 100 µM. The EC50 in the series with RSV [8] was 3 µM. The EC50 in the series on Sb-1, VSV, VV, HSV-1 is greater than 30 µM. Besides, the EC50 in the series with YFV was greater than 40 µM.
The compound `O=c1cnn([C@@H]2O[C@H](CO)[C@@H](O)[C@H]2O)c(=O)[nH]1` [6-azauridine, reference compound] yielded a CC50 at 5 days in series [6] of no less than 14 µM. Further, the EC50 with RSV [8] worked out at 1.4 µM. Besides, the “inhibition of viral attachment” value in the series on RSV A2 [9] is listed as “not able to block viral binding”.
As to `Cc1ccc(CCCO)c(NCc2ccc3nc(NCCCN4CCOCC4)n(Cc4nc(C)ccc4O)c3c2)c1` [TMC353121], the IC50 in the series on RSV F-protein is 0.0087 µM.
As to `COc1cc(C(=O)Nc2ccc(-n3nc4cc(Cl)c(Cl)cc4n3)cc2)cc(OC)c1OC` [8d, N-[4-(5,6-dichloro-2H-benzo[d][1,2,3]triazol-2-yl)phenyl]-3,4,5-trimethoxybenzamide], the melting point is 199 to 201 °C. The CC50 in series [1] was determined as 63 µM. The EC50 in the series with BVDV stood at 35 µM. In addition, the EC50 in the series with CV-B5 is greater than 80 µM. This compound registered a CC50 in the series “in vitro [3]” greater than 100 µM. In addition, the EC50 in the series with Reo-1 was greater than 35 µM. The IC50 in the series with RSV strain B1 cp-52 worked out at 10 ± 2 µM. In series [6], the CC50 at 5 days was 80 µM. This compound also gave a CC50 in series [7] of 35 µM. In addition, in the series on HIV-1IIIB, the EC50 is greater than 63 µM. Besides, in the series on RSV [8], the EC50 was determined as 3 µM. The EC50 with Sb-1, VSV, VV, HSV-1 was greater than 80 µM. The EC50 in the series with YFV is greater than 35 µM.
As to dextran sulfate [reference compound], the “inhibition of viral attachment” value in the series on RSV A2 [9] is “inhibits viral attachment; also recorded: efficiently blocked viral attachment”.
With `NC(=O)c1ncn([C@@H]2O[C@H](CO)[C@@H](O)[C@H]2O)n1` [ribavirin, reference compound], the CC50 at 5 days in “in vitro [12]” is greater than 100 µM. Moreover, in the series with RSV [8], the EC50 is 7 µM.

One may read the EC50 as the midpoint of the concentration-response curve. As a reminder, the melting point is the temperature, or range, at which the solid turns liquid.
